{"source": "ChEMBL document CHEMBL1933028", "about": "“Discovery of cyclic amine-substituted benzoic acids as PPARα agonists” (Bioorg Med Chem Lett, 2012)", "key": {"Canis familiaris [1]": {"tested_on": "Canis familiaris", "test": "Toxicity in high-fat diet fed dog assessed as effect on food intake at 0.03 mg/kg, po administered QD for 1 week (reference value: 3.67+/-0.09 kg)", "type": "organism-based, Canis lupus familiaris", "parameters": "dose 0.03 mg/kg, route oral", "settings": "in vivo, 168 h"}, "Canis familiaris [2]": {"tested_on": "Canis familiaris", "test": "Antidyslipidemic activity in high-fat diet fed dog assessed as decrease in serum triglyceride level at 0.01 mg/kg, po administered QD for 1 week (reference value: 98 +/- 4 mg/dL)", "type": "functional, Canis lupus familiaris"}, "Canis familiaris [3]": {"tested_on": "Canis familiaris", "test": "Antidyslipidemic activity in high-fat diet fed dog assessed as decrease in non-HDL cholesterol at 0.01 mg/kg, po administered QD for 1 week (reference value: 75 +/- 5 mg/dL)", "type": "functional, Canis lupus familiaris"}, "[4]": {"test": "Cmax in dog at 0.3 mg/kg, po", "type": "ADME, organism-based, Canis lupus familiaris", "parameters": "dose 0.3 mg/kg, route oral", "settings": "in vivo"}, "Canis familiaris [5]": {"tested_on": "Canis familiaris", "test": "Toxicity in high-fat diet fed dog assessed as effect on food intake at 0.003 mg/kg, po administered QD for 1 week (reference value: 3.67+/-0.09 kg)", "type": "organism-based, Canis lupus familiaris", "parameters": "dose 0.003 mg/kg, route oral", "settings": "in vivo, 168 h"}, "[6]": {"test": "Total clearance in rat at 1 mg/kg, po", "type": "ADME, organism-based", "parameters": "dose 1 mg/kg, route oral", "settings": "in vivo"}, "Canis familiaris [7]": {"tested_on": "Canis familiaris", "test": "Antidyslipidemic activity in high-fat diet fed dog assessed as decrease in serum triglyceride level at 0.003 mg/kg, po administered QD for 1 week (reference value: 98 +/- 4 mg/dL)", "type": "functional, Canis lupus familiaris"}, "[8]": {"test": "Half life in rat at 1 mg/kg, po", "type": "ADME, organism-based", "parameters": "dose 1 mg/kg, route oral", "settings": "in vivo"}, "[9]": {"test": "Total clearance in dog at 0.3 mg/kg, po", "type": "ADME, organism-based, Canis lupus familiaris", "parameters": "dose 0.3 mg/kg, route oral", "settings": "in vivo"}, "[10]": {"test": "Agonist activity at hamster PPARgamma", "type": "functional, Cricetinae"}, "Canis familiaris [11]": {"tested_on": "Canis familiaris", "test": "Antidyslipidemic activity in high-fat diet fed dog assessed as decrease in total cholesterol at 0.03 mg/kg, po administered QD for 1 week (reference value: 205 +/- 6 mg/dL)", "type": "functional, Canis lupus familiaris"}, "[12]": {"test": "Oral bioavailability in rat at 1 mg/kg", "type": "ADME, organism-based", "settings": "in vivo"}, "Canis familiaris [13]": {"tested_on": "Canis familiaris", "test": "Toxicity in high-fat diet fed dog assessed as effect on food intake at 0.01 mg/kg, po administered QD for 1 week (reference value: 3.67+/-0.09 kg)", "type": "organism-based, Canis lupus familiaris", "parameters": "dose 0.01 mg/kg, route oral", "settings": "in vivo, 168 h"}, "[14]": {"test": "Half life in dog at 0.3 mg/kg, po", "type": "ADME, organism-based, Canis lupus familiaris", "parameters": "dose 0.3 mg/kg, route oral", "settings": "in vivo"}, "[15]": {"target": "T1, Peroxisome proliferator-activated receptor alpha (Mus musculus, UniProt P23204)", "T1 sequence (P23204 whole entry)": "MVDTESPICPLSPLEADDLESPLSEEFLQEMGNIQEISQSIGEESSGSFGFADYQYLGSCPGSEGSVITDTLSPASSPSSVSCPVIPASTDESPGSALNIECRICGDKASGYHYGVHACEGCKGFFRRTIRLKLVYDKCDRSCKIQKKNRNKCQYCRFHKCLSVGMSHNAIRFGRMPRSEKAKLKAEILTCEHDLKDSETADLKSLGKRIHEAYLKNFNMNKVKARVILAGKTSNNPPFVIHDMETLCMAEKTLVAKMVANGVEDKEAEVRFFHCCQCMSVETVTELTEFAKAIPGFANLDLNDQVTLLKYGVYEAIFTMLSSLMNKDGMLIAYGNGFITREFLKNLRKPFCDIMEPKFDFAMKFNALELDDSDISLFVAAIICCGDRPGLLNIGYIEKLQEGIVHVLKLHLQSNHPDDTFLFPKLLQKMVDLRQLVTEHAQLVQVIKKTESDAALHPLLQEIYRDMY", "test": "Agonist activity at mouse PPARalpha", "type": "functional"}, "Canis familiaris [16]": {"tested_on": "Canis familiaris", "test": "Antidyslipidemic activity in high-fat diet fed dog assessed as decrease in non-HDL cholesterol at 0.03 mg/kg, po administered QD for 1 week (reference value: 75 +/- 5 mg/dL)", "type": "functional, Canis lupus familiaris"}, "Canis familiaris [17]": {"tested_on": "Canis familiaris", "test": "Antidyslipidemic activity in high-fat diet fed dog assessed as decrease in free fatty acid at 0.003 mg/kg, po administered QD for 1 week (reference value: 0.624 +/- 0.057 mEq/L)", "type": "functional, Canis lupus familiaris"}, "Canis familiaris [18]": {"tested_on": "Canis familiaris", "test": "Antidyslipidemic activity in high-fat diet fed dog assessed as decrease in free fatty acid at 0.03 mg/kg, po administered QD for 1 week (reference value: 0.624 +/- 0.057 mEq/L)", "type": "functional, Canis lupus familiaris"}, "[19]": {"test": "Agonist activity at rat PPARdelta", "type": "functional"}, "Canis familiaris [20]": {"tested_on": "Canis familiaris", "test": "Toxicity in high-fat diet fed dog assessed as change in body weight at 0.03 mg/kg, po administered QD for 1 week (reference value: 14.8 +/- 0.7 kg)", "type": "organism-based, Canis lupus familiaris", "parameters": "dose 0.03 mg/kg, route oral", "settings": "in vivo, 168 h"}, "Rattus norvegicus": {"tested_on": "Rattus norvegicus", "test": "Volume of distribution at steady state in rat at 1 mg/kg, po", "type": "ADME, organism-based", "parameters": "dose 1 mg/kg, route oral", "settings": "in vivo"}, "Canis familiaris [21]": {"tested_on": "Canis familiaris", "test": "Antidyslipidemic activity in high-fat diet fed dog assessed as decrease in non-HDL cholesterol at 0.003 mg/kg, po administered QD for 1 week (reference value: 75 +/- 5 mg/dL)", "type": "functional, Canis lupus familiaris"}, "[22]": {"target": "T2, Peroxisome proliferator-activated receptor gamma (Canis lupus familiaris, UniProt Q4U3Q4)", "T2 sequence (Q4U3Q4 whole entry)": "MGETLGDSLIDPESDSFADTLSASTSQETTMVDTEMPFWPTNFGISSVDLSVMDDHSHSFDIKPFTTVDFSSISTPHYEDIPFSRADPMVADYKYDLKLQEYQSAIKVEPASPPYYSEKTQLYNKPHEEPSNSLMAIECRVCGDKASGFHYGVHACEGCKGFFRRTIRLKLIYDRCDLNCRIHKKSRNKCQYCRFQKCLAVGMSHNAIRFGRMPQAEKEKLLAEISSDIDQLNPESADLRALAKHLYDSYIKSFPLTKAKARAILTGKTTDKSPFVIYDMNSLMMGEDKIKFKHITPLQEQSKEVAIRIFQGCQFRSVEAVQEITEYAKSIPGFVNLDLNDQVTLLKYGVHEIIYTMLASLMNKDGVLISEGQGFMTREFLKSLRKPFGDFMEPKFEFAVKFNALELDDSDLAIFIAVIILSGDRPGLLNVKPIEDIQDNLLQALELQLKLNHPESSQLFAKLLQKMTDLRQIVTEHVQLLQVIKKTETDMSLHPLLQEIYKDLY", "test": "Agonist activity at dog PPARgamma", "type": "functional"}, "Canis familiaris [23]": {"tested_on": "Canis familiaris", "test": "Toxicity in high-fat diet fed dog assessed as change in body weight at 0.003 mg/kg, po administered QD for 1 week (reference value: 14.8 +/- 0.7 kg)", "type": "organism-based, Canis lupus familiaris", "parameters": "dose 0.003 mg/kg, route oral", "settings": "in vivo, 168 h"}, "[24]": {"target": "T3, Peroxisome proliferator-activated receptor gamma (Homo sapiens, UniProt P37231)", "T3 sequence (P37231 whole entry)": "T2 sequence (Q4U3Q4 whole entry) with L9P, A18T, S24N, T25I, T29M, D54E, S84T, A86T, M89V", "test": "Transactivation of human PPARgamma expressed in CHO-K1 cells", "type": "cell-based"}}, "note": "Residue numbers refer to the chain shown, from its start.", "data": [{"smiles": "Cc1nc(-c2ccc(Cl)cc2)sc1C(=O)N[C@H]1CCCN(c2cccc(C(=O)O)c2)C1", "values": [{"measurement": "Activity", "setting": "Canis familiaris [1]", "result": 3.51, "unit": "kg"}, {"measurement": "Activity", "setting": "Canis familiaris [2]", "result": 48, "unit": "mg/dL"}, {"measurement": "Activity", "setting": "Canis familiaris [3]", "result": 50, "unit": "mg/dL"}, {"measurement": "Cmax", "setting": "[4]", "result": 295, "unit": "ng/mL"}, {"measurement": "Activity", "setting": "Canis familiaris [5]", "result": 3.85, "unit": "kg"}, {"measurement": "CL/F", "setting": "[6]", "result": 1.53, "unit": "mL/min/kg"}, {"measurement": "Activity", "setting": "Canis familiaris [7]", "result": 64, "unit": "mg/dL"}, {"measurement": "half-life", "setting": "[8]", "result": 10, "unit": "h"}, {"measurement": "CL/F", "setting": "[9]", "result": 0.333, "unit": "mL/min/kg"}, {"measurement": "EC50", "setting": "[10]", "result": "> 15", "unit": "µM"}, {"measurement": "Activity", "setting": "Canis familiaris [11]", "result": 169, "unit": "mg/dL"}, {"measurement": "bioavailability", "setting": "[12]", "result": 47.6, "unit": "%"}, {"measurement": "Activity", "setting": "Canis familiaris [13]", "result": 3.91, "unit": "kg"}, {"measurement": "half-life", "setting": "[14]", "result": 74, "unit": "h"}, {"measurement": "EC50", "setting": "[15]", "result": 4.7, "unit": "µM"}, {"measurement": "Activity", "setting": "Canis familiaris [16]", "result": 42, "unit": "mg/dL"}, {"measurement": "Activity", "setting": "Canis familiaris [17]", "result": 0.607, "unit": "mEq/L"}, {"measurement": "Activity", "setting": "Canis familiaris [18]", "result": 0.576, "unit": "mEq/L"}, {"measurement": "EC50", "setting": "[19]", "result": "> 14", "unit": "µM"}, {"measurement": "Activity", "setting": "Canis familiaris [20]", "result": 14.8, "unit": "kg"}, {"measurement": "Vdss", "setting": "Rattus norvegicus", "result": 0.832, "unit": "L/kg"}, {"measurement": "Activity", "setting": "Canis familiaris [21]", "result": 65, "unit": "mg/dL"}, {"measurement": "EC50", "setting": "[22]", "result": 11, "unit": "µM"}, {"measurement": "Activity", "setting": "Canis familiaris [23]", "result": 15.3, "unit": "kg"}, {"measurement": "EC50", "setting": "[24]", "result": 9.6, "unit": "µM"}]}]}
